{"source": "patent US20230085307A1", "about": "“PYRIDAZINONE COMPOUND AND HERBICIDE” (NISSAN CHEMICAL CORPORATION, priority 2019, published 2023)"}
{"test_system": "green foxtail", "assay": "Test Example 4: herbicidal effect by soil treatment (Table 19, symbol G)", "type": "in vivo, green foxtail (Setaria viridis)", "settings": "amount of applied herbicide 320 g/ha", "method_in_brief": "(§1)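 Seeds were sown in sterilized diluvial soil and covered with about 1.5 cm of soil. An emulsion formulation diluted with water to a predetermined herbicide amount was sprayed evenly onto the soil surface. Plants grew in a greenhouse at 25° C. to 30° C., and the effect was scored three weeks after application using criteria from an earlier test.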"}
{"smiles": "CCCC(=O)Oc1c(C)nn(C)c(=O)c1-c1c(-c2ccc(F)cc2OCC)sc2cc(OCC)ccc12", "note": "[3-096]", "G: green foxtail, herbicidal effect grade": "4 (Herbicidal rate of 70% or more and less than 90%)"}
{"smiles": "CCCOc1ccc2c(-c3c(O)c(C)nn(C)c3=O)c(-c3ccccc3OCC)sc2c1", "note": "[3-103]", "G: green foxtail, herbicidal effect grade": "4 (Herbicidal rate of 70% or more and less than 90%)"}
{"test_system": "windgrass", "assay": "Test Example 4: herbicidal effect by soil treatment (Table 19, symbol L)", "type": "in vivo, windgrass (Apera spica-venti)", "settings": "amount of applied herbicide 320 g/ha", "method_in_brief": "as §1"}
{"smiles": "CCCC(=O)Oc1c(C)nn(C)c(=O)c1-c1c(-c2ccc(F)cc2OCC)sc2cc(OCC)ccc12", "note": "[3-096]", "L: windgrass, herbicidal effect grade": "5 (Herbicidal rate of 90% or more (almost completely withered))"}
{"smiles": "CCCOc1ccc2c(-c3c(O)c(C)nn(C)c3=O)c(-c3ccccc3OCC)sc2c1", "note": "[3-103]", "L: windgrass, herbicidal effect grade": "5 (Herbicidal rate of 90% or more (almost completely withered))"}
{"test_system": "redroot pigweed", "assay": "Test Example 4: herbicidal effect by soil treatment (Table 19, symbol N)", "type": "in vivo, redroot pigweed (Amaranthus retroflexus)", "settings": "amount of applied herbicide 320 g/ha", "method_in_brief": "as §1"}
{"smiles": "CCCC(=O)Oc1c(C)nn(C)c(=O)c1-c1c(-c2ccc(F)cc2OCC)sc2cc(OCC)ccc12", "note": "[3-096]", "N: redroot pigweed, herbicidal effect grade": "5 (Herbicidal rate of 90% or more (almost completely withered))"}
{"smiles": "CCCOc1ccc2c(-c3c(O)c(C)nn(C)c3=O)c(-c3ccccc3OCC)sc2c1", "note": "[3-103]", "N: redroot pigweed, herbicidal effect grade": "4 (Herbicidal rate of 70% or more and less than 90%)"}
{"test_system": "lambsquarters", "assay": "Test Example 4: herbicidal effect by soil treatment (Table 19, symbol O)", "type": "in vivo, lambsquarters (Chenopodium album)", "settings": "amount of applied herbicide 320 g/ha", "method_in_brief": "as §1"}
{"smiles": "CCCC(=O)Oc1c(C)nn(C)c(=O)c1-c1c(-c2ccc(F)cc2OCC)sc2cc(OCC)ccc12", "note": "[3-096]", "O: lambsquarters, herbicidal effect grade": "5 (Herbicidal rate of 90% or more (almost completely withered))"}
{"smiles": "CCCOc1ccc2c(-c3c(O)c(C)nn(C)c3=O)c(-c3ccccc3OCC)sc2c1", "note": "[3-103]", "O: lambsquarters, herbicidal effect grade": "5 (Herbicidal rate of 90% or more (almost completely withered))"}
{"test_system": "Japanese bulrush", "assay": "Test Example 2: herbicidal activity, application during weed generation under submerged conditions (Table 17, symbol B)", "type": "in vivo, Japanese bulrush (Schoenoplectus juncoides)", "settings": "AAH 320 g/ha; application during weed generation, submerged conditions", "method_in_brief": "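Alluvial soil in Wagner pots was flooded to 4 cm depth and sown with the three weeds together; pots were kept in a greenhouse at 25° C. to 30° C. At the one to two leaf stage, an emulsion formulation diluted in water to a set rate went onto the water surface; scored three weeks later.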"}
{"smiles": "CCCC(=O)Oc1c(C)nn(C)c(=O)c1-c1c(-c2ccc(F)cc2OCC)sc2cc(OCC)ccc12", "note": "[3-096]", "herbicidal effect rating, B: Japanese bulrush": "5 (Herbicidal rate of 90% or more (almost completely withered))"}
{"smiles": "CCCOc1ccc2c(-c3c(O)c(C)nn(C)c3=O)c(-c3ccccc3OCC)sc2c1", "note": "[3-103]", "herbicidal effect rating, B: Japanese bulrush": "3 (Herbicidal rate of 40% or more and less than 70%)"}
{"test_system": "barnyard grass", "assay": "Test Example 5: herbicidal effect by foliage application, plastic box (Table 20, symbol H)", "type": "in vivo, barnyard grass (Echinochloa crus-galli)", "settings": "foliage application, 320 g/ha, three weeks after application", "method_in_brief": "(§2)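 Plants sown in sterilized diluvial soil and grown 14 days in a greenhouse at 25° C to 30° C, then sprayed on the foliage with the compound's emulsion diluted in water to a predetermined herbicide amount. Injury to weeds and crops scored three weeks after application on a visual rating scale.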"}
{"smiles": "CCCC(=O)Oc1c(C)nn(C)c(=O)c1-c1c(-c2ccc(F)cc2OCC)sc2cc(OCC)ccc12", "note": "[3-096]", "H: barnyard grass, herbicidal effect grade": "5 (Herbicidal rate of 90% or more (almost completely withered))"}
{"smiles": "CCCOc1ccc2c(-c3c(O)c(C)nn(C)c3=O)c(-c3ccccc3OCC)sc2c1", "note": "[3-103]", "H: barnyard grass, herbicidal effect grade": "5 (Herbicidal rate of 90% or more (almost completely withered))"}
{"test_system": "Italian ryegrass", "assay": "Test Example 4: herbicidal effect by soil treatment (Table 19, symbol K)", "type": "in vivo, Italian ryegrass (Lolium multiflorum)", "settings": "amount of applied herbicide 320 g/ha", "method_in_brief": "as §1"}
{"smiles": "CCCC(=O)Oc1c(C)nn(C)c(=O)c1-c1c(-c2ccc(F)cc2OCC)sc2cc(OCC)ccc12", "note": "[3-096]", "K: Italian ryegrass, herbicidal effect grade": "2 (Herbicidal rate of 20% or more and less than 40%)"}
{"smiles": "CCCOc1ccc2c(-c3c(O)c(C)nn(C)c3=O)c(-c3ccccc3OCC)sc2c1", "note": "[3-103]", "K: Italian ryegrass, herbicidal effect grade": "5 (Herbicidal rate of 90% or more (almost completely withered))"}
{"test_system": "oval-leafed pondweed", "assay": "Test Example 1: herbicidal activity, application before weed generation under submerged conditions (Table 16, symbol C)", "type": "in vivo, oval-leafed pondweed (Monochoria vaginalis)", "settings": "amount of applied herbicide 320 g/ha", "method_in_brief": "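Emulsion formulation, water-diluted to set dose, was put onto the flooded surface (4 cm depth, alluvial soil) the same day weeds were sown and 2.5-leaf rice transplanted. After 3 weeks at 25-30 °C under glass, each species was rated 0 (≤5% kill) to 5 (≥90% kill).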"}
{"smiles": "CCCC(=O)Oc1c(C)nn(C)c(=O)c1-c1c(-c2ccc(F)cc2OCC)sc2cc(OCC)ccc12", "note": "[3-096]", "Herbicidal effect, C: oval-leafed pondweed": "5 (Herbicidal rate of 90% or more (almost completely withered))"}
{"smiles": "CCCOc1ccc2c(-c3c(O)c(C)nn(C)c3=O)c(-c3ccccc3OCC)sc2c1", "note": "[3-103]", "Herbicidal effect, C: oval-leafed pondweed": "5 (Herbicidal rate of 90% or more (almost completely withered))"}
{"test_system": "rice flat sedge", "assay": "Test Example 3: herbicidal effect by foliage application, Wagner pot (Table 18, symbol E)", "type": "in vivo, rice flat sedge (Cyperus iria)", "settings": "320 g/ha", "method_in_brief": "(§3)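 Plants were sown in alluvial soil held under 0.1–0.5 cm standing water and grown 14 days in a greenhouse at 25–30 °C. An emulsifiable formulation, water-diluted to the set dose, was then sprayed onto the foliage, and effects were scored three weeks later using previously defined criteria.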"}
{"smiles": "CCCC(=O)Oc1c(C)nn(C)c(=O)c1-c1c(-c2ccc(F)cc2OCC)sc2cc(OCC)ccc12", "note": "[3-096]", "herbicidal effect on rice flat sedge (E)": "5 (Herbicidal rate of 90% or more (almost completely withered))"}
{"smiles": "CCCOc1ccc2c(-c3c(O)c(C)nn(C)c3=O)c(-c3ccccc3OCC)sc2c1", "note": "[3-103]", "herbicidal effect on rice flat sedge (E)": "5 (Herbicidal rate of 90% or more (almost completely withered))"}
{"test_system": "chickweed", "assay": "Test Example 5: herbicidal effect by foliage application, plastic box (Table 20, symbol P)", "type": "in vivo, common chickweed (Stellaria media)", "settings": "foliage application, 320 g/ha, three weeks after application", "method_in_brief": "as §2"}
{"smiles": "CCCC(=O)Oc1c(C)nn(C)c(=O)c1-c1c(-c2ccc(F)cc2OCC)sc2cc(OCC)ccc12", "note": "[3-096]", "P: chickweed, herbicidal effect grade": "5 (Herbicidal rate of 90% or more (almost completely withered))"}
{"smiles": "CCCOc1ccc2c(-c3c(O)c(C)nn(C)c3=O)c(-c3ccccc3OCC)sc2c1", "note": "[3-103]", "P: chickweed, herbicidal effect grade": "5 (Herbicidal rate of 90% or more (almost completely withered))"}
{"test_system": "blackgrass", "assay": "Test Example 5: herbicidal effect by foliage application, plastic box (Table 20, symbol J)", "type": "in vivo, blackgrass (Alopecurus myosuroides)", "settings": "foliage application, 320 g/ha, three weeks after application", "method_in_brief": "as §2"}
{"smiles": "CCCC(=O)Oc1c(C)nn(C)c(=O)c1-c1c(-c2ccc(F)cc2OCC)sc2cc(OCC)ccc12", "note": "[3-096]", "J: blackgrass, herbicidal effect grade": "5 (Herbicidal rate of 90% or more (almost completely withered))"}
{"smiles": "CCCOc1ccc2c(-c3c(O)c(C)nn(C)c3=O)c(-c3ccccc3OCC)sc2c1", "note": "[3-103]", "J: blackgrass, herbicidal effect grade": "4 (Herbicidal rate of 70% or more and less than 90%)"}
{"test_system": "persian speedwell", "assay": "Test Example 4: herbicidal effect by soil treatment (Table 19, symbol R)", "type": "in vivo, Persian speedwell (Veronica persica)", "settings": "amount of applied herbicide 320 g/ha", "method_in_brief": "as §1"}
{"smiles": "CCCC(=O)Oc1c(C)nn(C)c(=O)c1-c1c(-c2ccc(F)cc2OCC)sc2cc(OCC)ccc12", "note": "[3-096]", "R: persian speedwell, herbicidal effect grade": "5 (Herbicidal rate of 90% or more (almost completely withered))"}
{"smiles": "CCCOc1ccc2c(-c3c(O)c(C)nn(C)c3=O)c(-c3ccccc3OCC)sc2c1", "note": "[3-103]", "R: persian speedwell, herbicidal effect grade": "5 (Herbicidal rate of 90% or more (almost completely withered))"}
{"test_system": "Chinese sprangletop", "assay": "Test Example 3: herbicidal effect by foliage application, Wagner pot (Table 18, symbol D)", "type": "in vivo, chinese sprangletop (Leptochloa chinensis)", "settings": "320 g/ha", "method_in_brief": "as §3"}
{"smiles": "CCCC(=O)Oc1c(C)nn(C)c(=O)c1-c1c(-c2ccc(F)cc2OCC)sc2cc(OCC)ccc12", "note": "[3-096]", "herbicidal effect on Chinese sprangletop (D)": "5 (Herbicidal rate of 90% or more (almost completely withered))"}
{"smiles": "CCCOc1ccc2c(-c3c(O)c(C)nn(C)c3=O)c(-c3ccccc3OCC)sc2c1", "note": "[3-103]", "herbicidal effect on Chinese sprangletop (D)": "5 (Herbicidal rate of 90% or more (almost completely withered))"}
{"test_system": "velvetleaf", "assay": "Test Example 5: herbicidal effect by foliage application, plastic box (Table 20, symbol M)", "type": "in vivo, velvetleaf (Abutilon theophrasti)", "settings": "foliage application, 320 g/ha, three weeks after application", "method_in_brief": "as §2"}
{"smiles": "CCCC(=O)Oc1c(C)nn(C)c(=O)c1-c1c(-c2ccc(F)cc2OCC)sc2cc(OCC)ccc12", "note": "[3-096]", "M: velvetleaf, herbicidal effect grade": "5 (Herbicidal rate of 90% or more (almost completely withered))"}
{"smiles": "CCCOc1ccc2c(-c3c(O)c(C)nn(C)c3=O)c(-c3ccccc3OCC)sc2c1", "note": "[3-103]", "M: velvetleaf, herbicidal effect grade": "5 (Herbicidal rate of 90% or more (almost completely withered))"}
{"test_system": "velvetleaf", "assay": "Test Example 4: herbicidal effect by soil treatment (Table 19, symbol M)", "type": "in vivo, velvetleaf (Abutilon theophrasti)", "settings": "amount of applied herbicide 320 g/ha", "method_in_brief": "as §1"}
{"smiles": "CCCC(=O)Oc1c(C)nn(C)c(=O)c1-c1c(-c2ccc(F)cc2OCC)sc2cc(OCC)ccc12", "note": "[3-096]", "M: velvetleaf, herbicidal effect grade": "4 (Herbicidal rate of 70% or more and less than 90%)"}
{"smiles": "CCCOc1ccc2c(-c3c(O)c(C)nn(C)c3=O)c(-c3ccccc3OCC)sc2c1", "note": "[3-103]", "M: velvetleaf, herbicidal effect grade": "3 (Herbicidal rate of 40% or more and less than 70%)"}
{"test_system": "wild oat", "assay": "Test Example 4: herbicidal effect by soil treatment (Table 19, symbol I)", "type": "in vivo, wild oat (Avena fatua)", "settings": "amount of applied herbicide 320 g/ha", "method_in_brief": "as §1"}
{"smiles": "CCCC(=O)Oc1c(C)nn(C)c(=O)c1-c1c(-c2ccc(F)cc2OCC)sc2cc(OCC)ccc12", "note": "[3-096]", "I: wild oat, herbicidal effect grade": "0 (Herbicidal rate of 5% or less (almost no effect))"}
{"smiles": "CCCOc1ccc2c(-c3c(O)c(C)nn(C)c3=O)c(-c3ccccc3OCC)sc2c1", "note": "[3-103]", "I: wild oat, herbicidal effect grade": "0 (Herbicidal rate of 5% or less (almost no effect))"}
{"test_system": "Italian ryegrass", "assay": "Test Example 5: herbicidal effect by foliage application, plastic box (Table 20, symbol K)", "type": "in vivo, Italian ryegrass (Lolium multiflorum)", "settings": "foliage application, 320 g/ha, three weeks after application", "method_in_brief": "as §2"}
{"smiles": "CCCC(=O)Oc1c(C)nn(C)c(=O)c1-c1c(-c2ccc(F)cc2OCC)sc2cc(OCC)ccc12", "note": "[3-096]", "K: Italian ryegrass, herbicidal effect grade": "3 (Herbicidal rate of 40% or more and less than 70%)"}
{"smiles": "CCCOc1ccc2c(-c3c(O)c(C)nn(C)c3=O)c(-c3ccccc3OCC)sc2c1", "note": "[3-103]", "K: Italian ryegrass, herbicidal effect grade": "5 (Herbicidal rate of 90% or more (almost completely withered))"}
